Experimental data reported in patent US20260240844A1, “INHIBITORS OF CHD1L AND USES THEREOF” (The Regents of the University of Colorado, a body corporate, priority 2023, published 2026).
Entries after “also recorded” stand apart in the source; their conditions may differ.

Tests used:
Format in all cases: cell-based
[1] = tested on: SUM149PT cells; assay: Cell cycle analysis by flow cytometry
Procedure: Cells were then harvested by trypsinization, washed with PBS and fixed with 70% ice-cold ethanol for at least 2 h. The fixed cells were centrifuged at 300 g for 10 min, resuspended in PBS, centrifuged again, and stained in a 0.5 μg/mL DAPI solution in 0.1% Triton X-100-PBS for 30 min at RT. Samples were measured on a NovoCyte Penteon Cytometer (Agilent) and cell cycle distribution of single cells was analyzed using the automatic settings of FlowJo V10 (BD Biosciences).
Upon generation of DNA lesions, DNA damage checkpoints are also activated, which can lead to an arrest of the cell cycle, restraining chromosome segregation until the damaged DNA has been repaired. To study the effect of TNBC therapies and inhibition of CHD1L on the cell cycle, cells were stained with DAPI, and the cell subpopulations in G1, S and G2/M phases were analyzed by flow cytometry. […] Remarkably, the combination of these drugs with CHD1Li enhanced their effects, potentiating G2/M arrest caused by olaparib and G1 arrest caused by 5-FU (FIG. 23).

[2] = target: T1, CHD1L (Homo sapiens, UniProt Q86WJ1); assay: CHD1L trapping (in situ subcellular fractionation, immunofluorescence); settings: for CHD1L trapping onto chromatin/nucleosomes: single agent, SUM149PT + 0.01% MMS 4 h, BC and CRC cells
T1 sequence (Q86WJ1 1-897): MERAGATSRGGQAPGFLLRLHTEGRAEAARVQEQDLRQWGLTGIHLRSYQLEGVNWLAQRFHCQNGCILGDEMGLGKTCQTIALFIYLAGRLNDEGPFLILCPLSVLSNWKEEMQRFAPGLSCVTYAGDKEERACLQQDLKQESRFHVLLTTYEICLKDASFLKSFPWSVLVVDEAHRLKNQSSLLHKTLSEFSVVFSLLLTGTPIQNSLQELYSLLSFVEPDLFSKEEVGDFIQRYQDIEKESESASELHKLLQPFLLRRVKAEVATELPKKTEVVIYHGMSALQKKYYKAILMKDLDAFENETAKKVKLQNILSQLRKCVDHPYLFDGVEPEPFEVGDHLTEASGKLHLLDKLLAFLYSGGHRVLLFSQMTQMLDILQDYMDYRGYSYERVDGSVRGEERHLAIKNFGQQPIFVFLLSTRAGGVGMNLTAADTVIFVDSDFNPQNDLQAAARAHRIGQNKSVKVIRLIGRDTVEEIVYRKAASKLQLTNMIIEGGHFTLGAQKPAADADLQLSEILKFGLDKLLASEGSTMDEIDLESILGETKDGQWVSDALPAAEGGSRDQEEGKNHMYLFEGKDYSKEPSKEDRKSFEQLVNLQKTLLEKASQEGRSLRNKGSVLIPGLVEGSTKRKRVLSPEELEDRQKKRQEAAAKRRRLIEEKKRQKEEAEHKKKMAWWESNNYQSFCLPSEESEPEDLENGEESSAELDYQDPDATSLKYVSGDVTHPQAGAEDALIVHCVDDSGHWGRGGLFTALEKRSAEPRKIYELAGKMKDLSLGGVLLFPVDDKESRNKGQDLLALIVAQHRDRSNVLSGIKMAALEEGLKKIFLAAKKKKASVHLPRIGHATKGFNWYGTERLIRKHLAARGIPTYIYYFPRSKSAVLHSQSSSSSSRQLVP
Text: Other studies on the role of CHD1L used cell lines with knockdown or knockouts of the gene encoding for CHD1L and have never been able to study the result of its enzymatic inhibition.

[3] = tested on: PAR in SUM149PT cells; assay: PAR immunofluorescence (nuclear / cytoplasmic PAR); settings: for nuclear PAR (PARylation) / cytoplasmic PAR: SUM149PT cells, single agent; for nuclear PAR (PARylation): 4 h
Text: Inhibition of CHD1L promotes PAR translocation to the cytoplasm. The main role of PARP1 during the DDR is to detect and signal the recruitment of repair machinery to the sites of DNA damage. For that, PARP1/2 catalyze PARylation, which is a pivotal […] protein modification, consisting of the addition of ADP-ribose units to the carboxyl group of acidic residues such as glutamate or aspartate on target proteins by using NAD^+ as substrate. CHD1L is one of the proteins that requires binding to these PAR chains for its activation and subsequent chromatin remodeling. Using immunofluorescence of PAR, the effect of PARPi and CHD1Li on PARylation in SUM149PT cells was investigated. […] In addition, the effect of doxorubicin on nuclear PARylation was reverted by CHD1L inhibition, causing an increase of PAR in the cytoplasm (FIG. 25A-C).

[4] = tested on: AIF in SUM149PT cells; assay: AIF immunofluorescence in SUM149PT (SUM149) cells; settings: for cytoplasmic AIF / nuclear AIF: SUM149PT cells, single agent, 18 h
Text: CHD1Li-mediated PAR translocation to the cytoplasm activates PARthanatos as a cell death mechanism. Parthanatos is a form a programmed cell death different from apoptosis and known to be mediated by PARP1 overactivation. The unique events occurring during parthanatos are: PARP1 rapid activation, accumulation of PAR and nuclear translocation of apoptosis inducing factor (AIF). Without being bound by any particular theory, accumulation of PAR in the cytoplasm caused by CHD1Li can also mediate parthanatos. To better understand the link between PAR translocation to the cytoplasm and cell death, immunofluorescence to measure the activation of caspase-3 and the subcellular localization of AIF after treatment with SOC drugs and Compound 6 in SUM49PT cells was used. […] Without being bound by any particular theory, this might be caused by the mitochondrial outer membrane permeabilization, which triggers release of mitochondrial proteins like AIF or cytochrome c, activating caspase-3 by its cleavage and leading to apoptosis. […] Moreover, when combining CHD1L inhibition with SOC drugs, the cell death mechanism shifts from apoptosis to parthanatos, evidenced by a significant increase in AIF nuclear translocation and decrease in activation of caspase-3 (FIG. 25D-E).
The ability of Compounds 12, 15 and 16 to localize AIF was tested in SUM149 (breast cancer) and MDA-MB-231 (TNBC) cell lines. A comparison of the relative distribution of AIF in nuclei (a) versus cytoplasm (b) in SUM149 cells and nuclei (c) versus cytoplasm (d) in MDA-MB-231 cells in the presence of 4 μM Compounds 12, 15 and 16 are shown in FIG. 28. […] Similarly, AIF concentration in the cytoplasm of MDA-MB-231 cells decreased by about 0.5 after administration with Compound 15. After treatment with Compound 16, the relative concentration of AIF in the nuclei of SUM149 cells increased by about 0.5-fold, and the concentration of AIF in the cytoplasm decreased by about 0.4-fold. In MDA-MB-231 cells, the relative concentration of AIF in the cytoplasm decreased by about 0.5-fold, while the concentration of AIF increased in the nuclei by about 0.1-fold.

SMILES | increase in number of cells in G1 phase compared to untreated cells ([1]; 24 h) [%] | cell cycle effect ([1]; 24 hours, 0.2 μM) | CHD1L trapping in combination ([2]; Compound 6 combined with olaparib) | CHD1L trapping onto chromatin/nucleosomes [2] | nuclear PAR (PARylation) [3] | cytoplasmic AIF [4] | nuclear AIF [4] | PAR localization ([3]; Compound 6.11 combined with doxorubicin) | cytoplasmic PAR [3] | AIF nuclear translocation in combination ([4]; Compound 6.11 combined with doxorubicin or irinotecan/SN-38) | CHD1L trapping onto chromatin/nucleosomes ([2]; listed as Doxorubicin) | nuclear PAR (PARylation) ([3]; listed as Doxorubicin) | cytoplasmic PAR ([3]; listed as Doxorubicin) | increase in the percentage of cells in the G2/M phase ([1]; 24 h) [fold]
O=c1[nH]cc(F)c(=O)[nH]1 [Compound 5-FU, 5-fluorouracil] | 16 |  |  |  |  |  |  |  |  |  |  |  |  | 
Cc1cc(Nc2ccc(NC(=O)Cc3cccs3)cc2)nc(N2CCCC2)n1 [Compound 6, N-(4-((6-methyl-2-(pyrrolidin-1-yl)pyrimidin-4-yl)amino)phenyl)-2-(thiophen-2-yl)acetamide] |  | arrest in S and G2/M phases | complete decrease in the CHD1L trapping | dose-dependent increase in CHD1L trapping | caused the same effects as PARPi | decrease in cytoplasmic AIF | significantly increasing AIF in the nucleus |  |  |  |  |  |  | 
Cc1cc(Nc2ccc(NC(=O)Cc3cc(Br)cs3)cc2)nc(N2CCCC2)n1 [Compound 6.11, 2-(4-bromothiophen-2-yl)-N-(4-((6-methyl-2-(pyrrolidin-1-yl)pyrimidin-4-yl)amino)phenyl)acetamide] |  |  |  |  |  | did not affect cytoplasmic AIF | increased nuclear AIF | shifted PAR to the cytoplasm | increased cytoplasmic PAR | resulted in AIF nuclear translocation |  |  |  | 
COc1cccc2c1C(=O)c1c(O)c3c(c(O)c1C2=O)C[C@@](O)(C(=O)CO)C[C@@H]3O[C@H]1C[C@H](N)[C@H](O)[C@H](C)O1 [doxorubicin] |  |  |  | do not trap CHD1L | increased PARylation in the nucleus |  | some increase of AIF in the nucleus |  | no effect on cytoplasmic PAR |  | does not cause a stable interaction of CHD1L and chromatin | increased nuclear PAR | did not elevate cytoplasmic PAR | 
O=C(c1cc(Cc2n[nH]c(=O)c3ccccc23)ccc1F)N1CCN(C(=O)C2CC2)CC1 [olaparib] |  |  |  | do not trap CHD1L; also recorded: did not show CHD1L trapping | inhibition of nuclear PARylation | increased cytoplasmic AIF; also recorded: increase in the AIF intensity in the cytoplasm | did not enhance nuclear AIF; also recorded: no translocation of this protein to the nucleus |  | increased cytoplasmic PAR; also recorded: increase in cytoplasmic PAR |  |  |  |  | 2
